# From US20100216834A1, “HIV INTEGRASE INHIBITORS” (priority 2006, published 2010)
# pIC50: −log10 of the molar value. Where two headings read alike, the source gives them in different places.
# Experiments:
# HIV = assay: Assay for inhibition of HIV replication (spread assay): acute HIV infection of T-lymphoid cells; type: cell-based
# Protocol: Assays for the inhibition of acute HIV infection of T-lymphoid cells were conducted in accordance with Vacca, J. P. et al., Proc. Natl. Acad. Sci. USA 1994, 91: 4096. […] For example, the compounds of Examples 1 to 3 were tested in this assay and found to have the following IC95 values: […]
# [1] = target: T1, recombinant integrase (HIV integrase) (Human immunodeficiency virus type 1 group M subtype B, UniProt P04585); assay: HIV integrase assay: strand transfer catalyzed by recombinant integrase; type: biochemical
# T1 construct: Strand Transfer Catalyzed by Recombinant Integrase
# Protocol: Assays for the strand transfer activity of integrase were conducted in accordance with WO 02/30930 for recombinant integrase. […] For example, the compounds prepared in Examples 1 to 3 were tested in the integrase assay and found to have the following IC50 values:
# Further description on conducting the assay using preassembled complexes is found in Wolfe, A. L. et al., J. Virol. 1996, 70: 1424-1432, Hazuda et al., J. Virol. 1997, 71: 7005-7011; Hazuda et al., Drug Design and Discovery 1997, 15: 17-24; and Hazuda et al., Science 2000, 287: 646-650.
# [2] = IC50 (inhibition of strand transfer activity)
Compound,IC95 in the presence of 10% FBS (HIV),"pIC50 [1, 2]",pIC50 ([1]; read-out: IC50 (inhibition of strand transfer activity))
"CN1C[C@H](O)C(C)(C)Cn2c(c3c(c(O)c2=O)C(=O)N(Cc2ccc(F)c(Cl)c2)CC3)C1=O (single isomer, unassigned) [Ex. 1 - Isomer A-1]",15 nM,7.85,–
"CN1C[C@@H](O)C(C)(C)Cn2c(c3c(c(O)c2=O)C(=O)N(Cc2ccc(F)c(Cl)c2)CC3)C1=O (single isomer, unassigned) [Ex. 2]",31 nM,–,8.52
"CC1CCCN(C)C(=O)c2c3c(c(O)c(=O)n21)C(=O)N(Cc1ccc(F)c(Cl)c1)CC3 (single isomer, unassigned) [Ex. 3 - Diasteromer D-3, 11-(3-Chloro-4-fluorobenzyl)-9-hydroxy-2,6-dimethyl-3,4,5,6,12,13-hexahydro-2H[1,4]diazocino[2,1-a]-2,6-naphthyridine-1,8,10(11H)-trione]",8 nM,8.10,–
"CC1CCCN(C)C(=O)c2c3c(c(O)c(=O)n21)C(=O)N(Cc1ccc(F)c(Cl)c1)CC3 (single isomer, unassigned) [Ex. 3 - Diasteromer C-3, 11-(3-Chloro-4-fluorobenzyl)-9-hydroxy-2,6-dimethyl-3,4,5,6,12,13-hexahydro-2H[1,4]diazocino[2,1-a]-2,6-naphthyridine-1,8,10(11H)-trione]",250 nM,8.10,–
"CC1CCCN(C)C(=O)c2c3c(c(O)c(=O)n21)C(=O)N(Cc1ccc(F)c(Cl)c1)CC3 (single isomer, unassigned) [Ex. 3 - Diasteromer B-3, 11-(3-Chloro-4-fluorobenzyl)-9-hydroxy-2,6-dimethyl-3,4,5,6,12,13-hexahydro-2H[1,4]diazocino[2,1-a]-2,6-naphthyridine-1,8,10(11H)-trione]",11 nM,7.77,–
"CC1CCCN(C)C(=O)c2c3c(c(O)c(=O)n21)C(=O)N(Cc1ccc(F)c(Cl)c1)CC3 (single isomer, unassigned) [Ex. 3 - Diasteromer A-3, 11-(3-Chloro-4-fluorobenzyl)-9-hydroxy-2,6-dimethyl-3,4,5,6,12,13-hexahydro-2H[1,4]diazocino[2,1-a]-2,6-naphthyridine-1,8,10(11H)-trione]",125 nM,7.77,–
"CN1C[C@H](O)C(C)(C)Cn2c(c3c(c(O)c2=O)C(=O)N(Cc2ccc(F)c(Cl)c2)CC3)C1=O (single isomer, unassigned) [Ex. 1 - Isomer B-1]",31 nM,7.68,–
